This is an account of results in paper PMC3282010 (The AAPS Journal, 2011).

For orientation: AUC means concentration integrated over time. What is called IC50 is the point on the concentration scale where inhibition reaches its midpoint. Read a low IC50 as greater potency.

SMILES strings stand for the structures. Read-outs that look alike come from different tables or passages of the source. Marks after values point to notes of the source that are not given here.

The nature of data set [1]: clinical. Conditions: human, plasma, oral, AUCτ, part A, macitentan + Cs, 384–408 h (day 17 of period 2), steady-state, geometric mean (95% CI).
Data set [2] addresses T1, OATP1B3 (Homo sapiens, UniProt Q9NPD5). Particulars: for Uptake into OATP1B3 over-expressing cells: 3 μM, incubation for 40 s, 37°C, mean ± SD; for Difference in uptake rate between wild-type and OATP over-expressing cells: OATP1B3, different concentrations tested (Fig. 6).
For data set [3] the following is noted: cited from earlier work.
A short description of data set [4]: clinical. Particulars: human, in vivo, AUCτ.
Data set [5] concerns the target T2, OATP1B1 (Homo sapiens, UniProt Q9Y6L6). Conditions: for Uptake into OATP1B1 over-expressing cells: 3 μM, incubation for 40 s, 37°C, mean ± SD; for Difference in uptake rate between wild-type and OATP over-expressing cells: OATP1B1, different concentrations tested (Fig. 6).
Data set [6] deals with T2, OATP1B1.
Data set [7] relates to wild-type CHO cells. Particulars: 3 μM, incubation for 40 s, 37°C; mean ± SD.
In data set [8] the target is T2, OATP1B1. Particulars: OATP inhibition IC50 versus free plasma concentration.
For data set [9] the following is noted: human, in vivo.
In data set [10] the test system is endothelin ETA and ETB receptor. Particulars: dual ERA; cited from earlier work.
For data set [11] the following is noted: for Total plasma concentration at steady-state: healthy subjects, 10-mg once-daily regimen; for Ratio of geometric means of AUCτ / Ratio of geometric means of C tr: macitentan + Cs vs macitentan; for Ratio of geometric means of AUCτ: AUC(384h-408h)/AUC(96h-120h); for Ratio of geometric means of C tr: period 2 versus period 1.
The conditions of data set [12]: cited from earlier work. This is another data set of the same source.
Data set [13] has as its target T1, OATP1B3.
The conditions of data set [14]: strong CYP3A4 inhibitor; cited from earlier work.
For data set [15] the following is noted: in humans, after the first day of co-administration of Cs; cited from earlier work.
Setting [16] is: macitentan + Cs versus macitentan alone.
Where [17] appears, read: part A, macitentan + Cs, 384–408 h (day 17 of period 2), geometric mean (95% CI).
Setting [18] is: part A, macitentan alone, 96–120 h (day 5 of period 1), geometric mean (95% CI).

T2 sequence (Q9Y6L6 whole entry): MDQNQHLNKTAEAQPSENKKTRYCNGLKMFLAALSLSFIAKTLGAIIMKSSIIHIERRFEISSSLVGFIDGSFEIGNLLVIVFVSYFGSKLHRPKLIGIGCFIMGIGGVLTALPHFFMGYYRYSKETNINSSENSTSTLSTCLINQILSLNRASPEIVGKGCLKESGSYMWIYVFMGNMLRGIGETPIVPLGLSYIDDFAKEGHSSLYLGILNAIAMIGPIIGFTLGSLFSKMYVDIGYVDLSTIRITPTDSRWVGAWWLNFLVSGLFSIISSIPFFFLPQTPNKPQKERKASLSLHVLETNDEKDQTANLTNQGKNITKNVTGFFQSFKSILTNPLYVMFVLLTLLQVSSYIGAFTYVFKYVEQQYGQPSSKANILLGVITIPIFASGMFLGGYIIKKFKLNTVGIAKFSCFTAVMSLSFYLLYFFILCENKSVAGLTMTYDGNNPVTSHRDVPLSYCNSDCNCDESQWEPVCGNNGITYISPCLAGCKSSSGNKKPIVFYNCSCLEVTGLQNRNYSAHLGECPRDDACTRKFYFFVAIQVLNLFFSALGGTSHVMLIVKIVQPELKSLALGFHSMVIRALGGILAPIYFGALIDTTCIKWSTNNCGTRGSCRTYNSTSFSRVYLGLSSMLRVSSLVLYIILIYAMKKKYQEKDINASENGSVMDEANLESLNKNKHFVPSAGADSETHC
T1 sequence (Q9NPD5 whole entry): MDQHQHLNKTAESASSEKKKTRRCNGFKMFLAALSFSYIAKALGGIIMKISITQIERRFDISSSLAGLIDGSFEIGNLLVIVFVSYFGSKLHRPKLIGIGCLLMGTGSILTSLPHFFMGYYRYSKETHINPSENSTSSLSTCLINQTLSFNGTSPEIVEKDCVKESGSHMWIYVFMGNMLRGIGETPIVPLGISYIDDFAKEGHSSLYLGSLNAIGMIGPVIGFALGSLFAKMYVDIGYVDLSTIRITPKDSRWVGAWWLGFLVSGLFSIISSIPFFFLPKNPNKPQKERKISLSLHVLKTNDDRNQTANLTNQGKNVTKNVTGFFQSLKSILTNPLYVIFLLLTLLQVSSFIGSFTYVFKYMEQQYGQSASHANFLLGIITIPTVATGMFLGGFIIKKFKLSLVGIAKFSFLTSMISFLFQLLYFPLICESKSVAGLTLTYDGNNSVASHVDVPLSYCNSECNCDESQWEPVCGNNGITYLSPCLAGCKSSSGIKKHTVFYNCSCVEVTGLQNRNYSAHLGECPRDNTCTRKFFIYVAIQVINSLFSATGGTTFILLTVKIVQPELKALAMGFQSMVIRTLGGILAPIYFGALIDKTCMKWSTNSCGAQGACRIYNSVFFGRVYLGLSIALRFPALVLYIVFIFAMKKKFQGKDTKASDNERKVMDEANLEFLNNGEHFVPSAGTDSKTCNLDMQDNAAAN

As for `NS(=O)(=O)Nc1ncnc(OCCOc2ncc(Br)cn2)c1-c1ccc(Br)cc1` [ACT-132577], the AUC in data set [1] came to 16400 ng·h/mL. Besides, in [2], the “Uptake into OATP1B3 over-expressing cells” value was 288 ± 10 pmol/mg; the “Difference in uptake rate between wild-type and OATP over-expressing cells” value (shortened to “Difference”) was “No marked difference”. For the same compound, the “elimination half-life (t 1/2)” value in [3] (in humans) is given as “approximately 48 h”. Moreover, in data set [4], the AUC was 14800 ng·h/mL. For the same compound, in data set [5], the “Uptake into OATP1B1 over-expressing cells” value was 237 ± 7 pmol/mg; the “Difference” value is given as “No marked difference”. This compound also showed an IC50 in [6] of 19.9 ± 1.4 µM. Also, the “Uptake into wild-type cells” value in [7] is 214 ± 11 pmol/mg. In [8], the “Free steady-state plasma concentration lower than the lowest IC50 determined” value is reported as “around 2,490 fold”. Further, in data set [9], the AUCτ was 14,798 (13,216, 16,569) ng·h/mL; the “Decrease of steady-state AUCτ in the presence of rifampin” value (shortened to “Decrease … of rifampin”) was determined as 0.3%; the “Ratio of geometric means of AUCτ” value amounted to 1.00 ng·h/mL; the “Ratio of geometric means of C tr” value is on record as 0.83^a ng·h/mL. In addition, in data set [10], the “Potency in vitro relative to macitentan (less potent)” value is reported as “approximately five-fold”. For the same compound, in data set [11], the “Total plasma concentration at steady-state” value was approximately 1.5 µM. The “Systemic exposure in humans relative to macitentan (higher)” value in data set [11] (in humans) is listed as 2.5 fold. Further, the “Decrease of steady-state AUCτ in the presence of Cs” value in data set [11] (setting [16]) was determined as 3%. Moreover, in data set [11] (part A), the “Ratio of geometric means of AUCτ” value was 0.97 ng·h/mL and the “Ratio of geometric means of C tr” value was 1.02 ng·h/mL. The C tr in data set [11] (setting [17]) is reported as 640 (550, 745) ng/mL. The C tr in data set [11] (setting [18]) is listed as 626 (547, 717) ng/mL. In addition, the “Binding to human plasma proteins in vitro” value in data set [12] is given as 99.5%. Further, in data set [13], the IC50 turned out to be 51.6 ± 3 µM.
Regarding `CCCNS(=O)(=O)Nc1ncnc(OCC(=O)O)c1-c1ccc(Br)cc1` [ACT-373898], the “Decrease … of rifampin” value in data set [9] is recorded as 64%. For the same compound, the “Ratio of geometric means of AUCτ” value is reported as 0.36^a ng·h/mL in data set [9] and 1.07^a ng·h/mL in data set [11] (part A). Further, the figures for the “Ratio of geometric means of C tr” value in [9] and in [11] (part A) were 0.14^a ng·h/mL and 1.12^a ng·h/mL, respectively. The “Increase of steady-state AUCτ in the presence of Cs” value in [11] (setting [16]) came to 7%. In addition, the AUCτ in data set [11] (part A, macitentan + Cs, 384–408 h (day 17 of period 2), steady-state, plasma, geometric mean (95% CI)) is reported as 568 (432, 747) ng·h/mL. The C tr in data set [11] (setting [17]) was 20 (15, 26) ng/mL; in data set [11] (setting [18]), 17 (13, 24) ng/mL.
On to `CCCNS(=O)(=O)Nc1ncnc(OCCOc2ncc(Br)cn2)c1-c1ccc(Br)cc1` [Macitentan], for which the AUC in data set [1] was 7560 ng·h/mL. In data set [2], the “Uptake into OATP1B3 over-expressing cells” value was found to be 387 ± 11 pmol/mg; the “Difference” value is “No marked difference”. For the same compound, in data set [3] (in humans), the “Time to maximum plasma concentrations after administration” value is “approximately 8 h” and the “elimination half-life (t 1/2)” value is “approximately 16 h”. In addition, the Tolerability result in data set [3] (single-ascending dose study, doses of up to 300 mg) was “well tolerated”. Besides, in data set [5], the “Uptake into OATP1B1 over-expressing cells” value amounted to 362 ± 6 pmol/mg; the “Difference” value is “No marked difference”. In data set [6], this compound returned an IC50 of 6.3 ± 0.7 µM. Further, the “Uptake into wild-type cells” value in data set [7] worked out at 346 ± 3 pmol/mg. In addition, in data set [8], the “Free steady-state plasma concentration lower than the lowest IC50 determined” value is listed as “around 2,490 fold”. Moreover, in [9], the “Decrease … of rifampin” value is reported as 79%, the “Ratio of geometric means of AUCτ” value is 0.21^a ng·h/mL, the “Ratio of geometric means of C tr” value is recorded as 0.07^a ng·h/mL and the “Reduction in exposure in the presence of rifampin” value was “approximately four-fold”. The Tolerability result in data set [9] is recorded as “well tolerated”. Moreover, the Tolerability entry in data set [11] (co-administered with Cs, healthy male subjects) is given as “well tolerated”. Also, the “Total plasma concentration at steady-state” value in [11] was “approximately 0.63 μM”. In data set [11] (setting [16]), the “Increase of steady-state AUCτ in the presence of Cs” value is 10%. Further, in data set [11] (part A), the “Ratio of geometric means of AUCτ” value is listed as 1.10^a ng·h/mL and the “Ratio of geometric means of C tr” value is given as 1.38^a ng·h/mL. In data set [11] (setting [17]), the C tr is 220 (176, 274) ng/mL. Moreover, the C tr in data set [11] (setting [18]) is listed as 159 (121, 209) ng/mL. Further, the “Subjects affected by treatment-emergent AEs” value in data set [11] (part A, period 1 (macitentan alone), 10 subjects) was determined as 30%. The “Increase of AUC0–∞ in the presence of ketoconazole” value in data set [14] was “approximately two-fold”. Further, the “Binding to human plasma proteins in vitro” value in data set [12] was 99.6%.
As to `COc1ccccc1Oc1c(NS(=O)(=O)c2ccc(C(C)(C)C)cc2)nc(-c2ncccn2)nc1OCCO` [bosentan], the “Increase in exposure in the presence of Cs” value in [15] is on record as 30 fold.
